{"source": "patent US3943123A", "about": "“Novel beta-lactams and novel process” (Koninklijke Nederlandsche Gist-En Spiritusfabriek N.V., priority 1974, dated 1976)", "key": {"[1]": {"test": "solubility in various organic solvents", "format": "physicochemical", "conditions": "cis isomer, in words"}, "test organisms": {"system": "test organisms", "test": "anti-bacterial activity as determined by standard tests", "format": "cell-based", "conditions": "in words", "from_the_text": "Many of the β-lactams described here have anti-bacterial activity as determined by standards tests. […] The novel β-lactams of the invention are also useful intermediates for the preparation of complex substituted amino acids which can then be polymerized to form polymers. The amino acids are formed by 1,2-cleavage of the β-lactams with an alkali metal hydroxide or alkoxide such as sodium methoxide in a lower alkanol such as methanol to form the corresponding alkali metal salt of the resulting 3-aminopropionic acid which can be acidified to form the corresponding free amino acid.\n(§1) A stock solution of the test compounds at a concentration of […] in 0.05 molar phosphate buffer solution at a pH of 6.5 was prepared and two-fold dilutions were made with sterile buffer. 1 cc quantities of each dilution were then incorporated into 19 cc of brain heart infusion agar in sterile petri dishes. The hardened surface was then inoculated with the test organisms and it was then incubated for 18 hours at 37°C. The minimum inhibitory concentration (MIC) which is the least amount of compound completely inhibiting the test organism is determined in mg/cc."}, "[2]": {"system": "Staphylococcus Aureus A 355", "test": "MIC by two-fold agar dilution (brain heart infusion agar), Staphylococcus aureus A 355", "format": "cell-based", "conditions": "strain A 355, 18 hours at 37°C, pH 6.5 buffer, read-out: minimum inhibitory concentration (MIC)", "protocol": "as §1"}, "[3]": {"system": "Staphylococcus Aureus 2160'", "test": "MIC by two-fold agar dilution (brain heart infusion agar), Staphylococcus aureus 2160'", "format": "cell-based", "conditions": "strain 2160', 18 hours at 37°C, pH 6.5 buffer, read-out: minimum inhibitory concentration (MIC)", "protocol": "as §1"}, "[4]": {"system": "Bacillus Subtilis ATCC 6633", "test": "MIC by two-fold agar dilution (brain heart infusion agar), Bacillus subtilis", "format": "cell-based", "conditions": "ATCC6633, 18 hours at 37°C, pH 6.5 buffer, read-out: minimum inhibitory concentration (MIC)", "protocol": "as §1"}, "[5]": {"system": "Staphylococcus Aureus A 321", "test": "MIC by two-fold agar dilution (brain heart infusion agar), Staphylococcus aureus A 321", "format": "cell-based", "conditions": "strain A 321, 18 hours at 37°C, pH 6.5 buffer, read-out: minimum inhibitory concentration (MIC)", "protocol": "as §1"}}, "data": [{"smiles": "O=C(O)c1ccc(N2C(=O)[C@@H](Oc3ccccc3)[C@H]2c2ccccc2O)cc1", "note": "(relative stereo) [cis-1-(p-carboxyphenyl)-3-phenoxy-4-(o-hydroxyphenyl)azetidin-2-one]", "values": [{"measurement": "solubility in various organic solvents", "setting": "[1]", "value": "low solubility in various organic solvents"}]}, {"smiles": "COc1ccc(C2C(Oc3ccccc3)C(=O)N2c2ccc(C(=O)O)cc2)cc1", "note": "(stereo not drawn) [1-(p-carboxyphenyl)-3-phenoxy-4-(p-methoxyphenyl)-azetidin-2-one]", "values": [{"measurement": "antibacterial activity", "setting": "test organisms", "value": "outstanding for their antibacterial activity"}]}, {"smiles": "COc1ccc(N2C(=O)C(Oc3ccccc3)C2c2ccc(C(=O)O)cc2)cc1", "note": "(stereo not drawn) [1-(p-methoxyphenyl)-3-phenoxy-4-(p-carboxyphenyl)-azetidin-2-one]", "values": [{"measurement": "antibacterial activity", "setting": "test organisms", "value": "outstanding for their antibacterial activity"}, {"measurement": "MIC", "setting": "[2]", "value": 100, "unit": "mg/mL"}, {"measurement": "MIC", "setting": "[3]", "value": 100, "unit": "mg/mL"}, {"measurement": "MIC", "setting": "[4]", "value": 100, "unit": "mg/mL"}, {"measurement": "MIC", "setting": "[5]", "value": 100, "unit": "mg/mL"}]}, {"smiles": "O=C(O)c1ccc(N2C(=O)C(Oc3ccccc3)C2c2ccco2)cc1", "note": "(stereo not drawn) [1-p-carboxyphenyl-3-phenoxy-4-α-furyl-azetidin-2-one]", "values": [{"measurement": "antibacterial activity", "setting": "test organisms", "value": "outstanding for their antibacterial activity"}, {"measurement": "MIC", "setting": "[4]", "value": 50, "unit": "mg/mL"}]}]}
